Laboratory results taken from PubChem BioAssay AID248 (DTP/NCI, 2004).
Where “and” joins values, the source holds several entries; their conditions need not be identical. Equal entries are not always repeated. Inconclusive results and toxic doses are left out.

System: L1210 leukemia ip in BDF1 mice, survival T/C
Assay: NCI In Vivo Anticancer Drug Screen. Data for tumor model L1210 Leukemia (intraperitoneal) in B6D2F1 (BDF1) mice
Conditions: endpoint: mean survival time, higher = longer survival
In short: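 Read-out is survival time, reported as the treated-group measurement over the vehicle-control measurement.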

[1] = dose: 100.0 mg/kg/injection, schedule: Q04DX003 (ip), vehicle: saline with Tween-80
[2] = dose: 100.0 mg/kg/injection, schedule: Q01DX001 (ip), vehicle: saline
[3] = dose: 100.0 mg/kg/injection, schedule: Q04DX003 (ip), vehicle: Klucel (hydroxypropylcellulose) (HPC)
[4] = dose: 200.0 mg/kg/injection, schedule: Q04DX003 (ip), vehicle: Klucel (hydroxypropylcellulose) (HPC)
[5] = dose: 75.0 mg/kg/injection, schedule: Q01DX001 (ip), vehicle: saline
[6] = dose: 150.0 mg/kg/injection, schedule: Q01DX001 (ip), vehicle: saline
[7] = dose: 400.0 mg/kg/injection, schedule: Q04DX003 (ip), vehicle: Klucel (hydroxypropylcellulose) (HPC)
[8] = dose: 100.0 mg/kg/injection, schedule: Q04DX002 (ip), vehicle: Klucel (hydroxypropylcellulose) (HPC)
[9] = dose: 200.0 mg/kg/injection, schedule: Q04DX002 (ip), vehicle: Klucel (hydroxypropylcellulose) (HPC)
[10] = dose: 400.0 mg/kg/injection, schedule: Q04DX002 (ip), vehicle: Klucel (hydroxypropylcellulose) (HPC)

## COC(=O)C1(C(=O)OC)C2C(=O)C3C(C21)C3(C(=O)OC(C)(C)C)C(=O)OC(C)(C)C (stereo not given)
dose: 100.0 mg/kg/injection, schedule: Q01DX009 (ip), vehicle: saline with Tween-80
  T/C: 95 % of control
[1]
  T/C: 101 % of control and 98 % of control
dose: 200.0 mg/kg/injection, schedule: Q01DX009 (ip), vehicle: saline with Tween-80
  T/C: 92 % of control
dose: 200.0 mg/kg/injection, schedule: Q04DX003 (ip), vehicle: saline with Tween-80
  T/C: 102 % of control and 88 % of control
dose: 400.0 mg/kg/injection, schedule: Q01DX009 (ip), vehicle: saline with Tween-80
  T/C: 92 % of control
dose: 400.0 mg/kg/injection, schedule: Q04DX003 (ip), vehicle: saline with Tween-80
  T/C: 91 % of control and 111 % of control

## O=S(=O)(Nc1nccs1)c1ccc(N(CCCl)CCCl)cc1
dose: 50.0 mg/kg/injection, schedule: Q01DX009 (ip), vehicle: Klucel (hydroxypropylcellulose) (HPC)
  T/C: 116 % of control

## COc1cc(CNCc2cc(OC)c(OC)c(OC)c2)cc(OC)c1OC
dose: 50.0 mg/kg/injection, schedule: Q01DX001 (ip), vehicle: saline
  T/C: 102 % of control
[2]
  T/C: 102 % of control

## O=C(C(Cl)(Cl)CO)C(Cl)(Cl)CO
[2]
  T/C: 91 % of control
dose: 200.0 mg/kg/injection, schedule: Q01DX001 (ip), vehicle: saline
  T/C: 94 % of control
dose: 400.0 mg/kg/injection, schedule: Q01DX001 (ip), vehicle: saline
  T/C: 92 % of control

## CCOC(=O)c1cnc(SC)nc1C(=O)OCC
dose: 50.0 mg/kg/injection, schedule: Q04DX003 (ip), vehicle: Klucel (hydroxypropylcellulose) (HPC)
  T/C: 102 % of control
[3]
  T/C: 94 % of control
[4]
  T/C: 102 % of control

## Cc1ccc(CN(CC(=O)O)S(C)(=O)=O)cc1
dose: 100.0 mg/kg/injection, schedule: Q01DX009 (ip), vehicle: other
  T/C: 105 % of control
dose: 100.0 mg/kg/injection, schedule: Q04DX003 (ip), vehicle: other
  T/C: 95 % of control
dose: 200.0 mg/kg/injection, schedule: Q01DX009 (ip), vehicle: other
  T/C: 98 % of control
dose: 200.0 mg/kg/injection, schedule: Q04DX003 (ip), vehicle: other
  T/C: 97 % of control
dose: 400.0 mg/kg/injection, schedule: Q01DX009 (ip), vehicle: other
  T/C: 110 % of control
dose: 400.0 mg/kg/injection, schedule: Q04DX003 (ip), vehicle: other
  T/C: 101 % of control

## Cc1[nH]nc(C(N)=O)c1N=NN(C)C
dose: 12.5 mg/kg/injection, schedule: Q01DX009 (ip), vehicle: saline
  T/C: 108 % of control
dose: 25.0 mg/kg/injection, schedule: Q01DX001 (ip), vehicle: saline
  T/C: 121 % of control
dose: 25.0 mg/kg/injection, schedule: Q01DX009 (ip), vehicle: saline
  T/C: 124 % of control
dose: 50.0 mg/kg/injection, schedule: Q01DX009 (ip), vehicle: saline
  T/C: 183 % of control
[5]
  T/C: 112 % of control and 124 % of control
dose: 75.0 mg/kg/injection, schedule: Q01DX009 (ip), vehicle: saline
  T/C: 204 % of control
[6]
  T/C: 104 % of control and 216 % of control
dose: 150.0 mg/kg/injection, schedule: Q01DX009 (ip), vehicle: saline
  T/C: 186 % of control

## O=c1oc2cccc(O)c2c2c1CCCC2
dose: 100.0 mg/kg/injection, schedule: Q01DX009 (ip), vehicle: Klucel (hydroxypropylcellulose) (HPC)
  T/C: 95 % of control
[3]
  T/C: 97 % of control
dose: 200.0 mg/kg/injection, schedule: Q01DX009 (ip), vehicle: Klucel (hydroxypropylcellulose) (HPC)
  T/C: 90 % of control
[4]
  T/C: 95 % of control
dose: 400.0 mg/kg/injection, schedule: Q01DX009 (ip), vehicle: Klucel (hydroxypropylcellulose) (HPC)
  T/C: 90 % of control
[7]
  T/C: 93 % of control

## CC(C)c1ccc(C(O)C2CC2)cc1 (stereo not given)
[1]
  T/C: 94 % of control

## NC(=O)c1[nH]cnc1NN=NCCCl
dose: 0.37 mg/kg/injection, schedule: Q01DX009 (ip), vehicle: saline with Tween-80
  T/C: 165 % of control
dose: 0.75 mg/kg/injection, schedule: Q01DX001 (ip), vehicle: saline with Tween-80
  T/C: 106 % of control
dose: 0.75 mg/kg/injection, schedule: Q01DX009 (ip), vehicle: saline with Tween-80
  T/C: 119 % of control
dose: 1.5 mg/kg/injection, schedule: Q01DX009 (ip), vehicle: saline with Tween-80
  T/C: 122 % of control
dose: 3.0 mg/kg/injection, schedule: Q01DX009 (ip), vehicle: saline with Tween-80
  T/C: 173 % of control
dose: 3.12 mg/kg/injection, schedule: Q01DX009 (ip), vehicle: saline with Tween-80
  T/C: 172 % of control
dose: 4.0 mg/kg/injection, schedule: Q01DX009 (ip), vehicle: saline with Tween-80
  T/C: 156 % of control and 189 % of control
dose: 6.0 mg/kg/injection, schedule: Q01DX009 (ip), vehicle: saline with Tween-80
  T/C: 164 % of control and 240 % of control
dose: 6.25 mg/kg/injection, schedule: Q01DX009 (ip), vehicle: saline with Tween-80
  T/C: 258 % of control
dose: 9.0 mg/kg/injection, schedule: Q01DX009 (ip), vehicle: saline with Tween-80
  T/C: 191 % of control and 215 % of control
dose: 12.5 mg/kg/injection, schedule: Q01DX001 (ip), vehicle: saline with Tween-80
  T/C: 247 % of control
dose: 12.5 mg/kg/injection, schedule: Q01DX009 (ip), vehicle: saline with Tween-80
  T/C: 161 % of control
dose: 17.0 mg/kg/injection, schedule: Q01DX001 (ip), vehicle: saline with Tween-80
  T/C: 215 % of control and 229 % of control
dose: 25.0 mg/kg/injection, schedule: Q01DX001 (ip), vehicle: saline with Tween-80
  T/C: 207 % of control and 285 % of control and 313 % of control
dose: 25.0 mg/kg/injection, schedule: Q01DX009 (ip), vehicle: saline with Tween-80
  T/C: 91 % of control
dose: 37.0 mg/kg/injection, schedule: Q01DX001 (ip), vehicle: saline with Tween-80
  T/C: 171 % of control and 257 % of control
dose: 50.0 mg/kg/injection, schedule: Q01DX001 (ip), vehicle: saline with Tween-80
  T/C: 197 % of control

## CC(C)C1=CC23CCC4C(C)(C(=O)O)CCCC4(C)C2CC1C1C(=O)N(CCCN(C)C)C(=O)C13 (stereo not given)
dose: 75.0 mg/kg/injection, schedule: Q01DX001 (ip), vehicle: other
  T/C: 96 % of control
dose: 150.0 mg/kg/injection, schedule: Q01DX001 (ip), vehicle: other
  T/C: 94 % of control

## O=C(NCCCCC(NC(=O)OCc1ccccc1)C(=O)NCCCCCCCCCCNC(=O)C(CCCCNC(=O)OCc1ccccc1)NC(=O)OCc1ccccc1)OCc1ccccc1 (stereo not given)
dose: 10.0 mg/kg/injection, schedule: Q01DX012 (ip), vehicle: saline
  T/C: 94 % of control
dose: 30.0 mg/kg/injection, schedule: Q01DX012 (ip), vehicle: saline
  T/C: 96 % of control
dose: 100.0 mg/kg/injection, schedule: Q01DX012 (ip), vehicle: saline
  T/C: 94 % of control
dose: 300.0 mg/kg/injection, schedule: Q01DX012 (ip), vehicle: saline
  T/C: 88 % of control

## O=C(O)C12CCCC(CCC1)C2=O
[5]
  T/C: 100 % of control
[6]
  T/C: 102 % of control
dose: 300.0 mg/kg/injection, schedule: Q01DX001 (ip), vehicle: saline
  T/C: 100 % of control

## Cc1ccc(OCCOC(=O)COc2ccc(Cl)cc2Cl)cc1C
[8]
  T/C: 102 % of control
[9]
  T/C: 97 % of control
[10]
  T/C: 102 % of control

## O=C1NCC/C1=C\c1cc2c(cc1[N+](=O)[O-])OCO2
dose: 50.0 mg/kg/injection, schedule: Q01DX001 (ip), vehicle: carboxymethylcellulose (CMC)
  T/C: 88 % of control
dose: 100.0 mg/kg/injection, schedule: Q01DX001 (ip), vehicle: carboxymethylcellulose (CMC)
  T/C: 90 % of control
dose: 200.0 mg/kg/injection, schedule: Q01DX001 (ip), vehicle: carboxymethylcellulose (CMC)
  T/C: 100 % of control
dose: 400.0 mg/kg/injection, schedule: Q01DX001 (ip), vehicle: carboxymethylcellulose (CMC)
  T/C: 90 % of control

## CCc1c(Nc2ccccc2C)nc(N)[nH]c1=O
dose: 100.0 mg/kg/injection, schedule: Q01DX Z (ip), vehicle: methylcellulose (MC)
  T/C: 100 % of control
dose: 200.0 mg/kg/injection, schedule: Q01DX Z (ip), vehicle: methylcellulose (MC)
  T/C: 104 % of control

## O=C(c1ccc(C(=O)Nc2cccc3ccccc23)c(C(=O)O)c1)c1ccc(C(=O)Nc2cccc3ccccc23)c(C(=O)O)c1
[8]
  T/C: 97 % of control
[9]
  T/C: 94 % of control
[10]
  T/C: 94 % of control

## O=C(CCl)NC1CCC(CC2CCCCC2)CC1 (stereo not given)
[3]
  T/C: 99 % of control
[4]
  T/C: 93 % of control
[7]
  T/C: 89 % of control

## CN1CCN=C1c1ccc(NC(=O)c2ccc(C(=O)Nc3ccc(C4=NCCN4C)cc3)c([N+](=O)[O-])c2)cc1
dose: 1.5 mg/kg/injection, schedule: Q01DX Z (ip), vehicle: carboxymethylcellulose (CMC)
  T/C: 96 % of control
dose: 3.0 mg/kg/injection, schedule: Q01DX Z (ip), vehicle: carboxymethylcellulose (CMC)
  T/C: 101 % of control
dose: 6.0 mg/kg/injection, schedule: Q01DX Z (ip), vehicle: carboxymethylcellulose (CMC)
  T/C: 90 % of control
